Source: patent publication US10329309B2, “3-(3H-imidazo[4,5-B]pyridin-2-yl)-1H-pyrazolo[4,3-B]pyridines and therapeutic uses thereof” (Samumed, LLC, priority 2015, dated 2019)

How the values were obtained:
Assay type in all cases: cell-based
[1] = system: Wnt activity (Sp5-Luc reporter, SW480 colon carcinoma cells); assay: Screening assay for Wnt activity: Sp5-Luc reporter gene assay in SW480 cells; conditions: Homo sapiens, overnight incubation, 10-point dose-response from 10 μM
Description: The screening assay for Wnt activity is described as follows. Reporter cell lines can be generated by stably transducing cancer cell lines (e.g., colon cancer) or primary cells (e.g., IEC-6 intestinal cells) with a lentiviral construct that includes a Wnt-responsive promoter driving expression of the firefly luciferase gene.
SW480 colon carcinoma cells were transduced with a lentiviral vector expressing luciferase with a human Sp5 promoter consisting of a sequence of eight TCF/LEF binding sites. SW480 cells stably expressing the Sp5-Luc reporter gene and a hygromycin resistance gene were selected by treatment with 150 μg/mL of hygromycin for 7 days. These stably transduced SW480 cells were expanded in cell culture and used for all further screening activities. Each compound was dissolved in DMSO as a 10 mM stock and used to prepare compound source plates. Serial dilution (1:3, 10-point dose-response curves starting from 10 μM) and compound transfer was performed using the ECHO 550 (Labcyte, Sunnyvale, Calif.) into 384-well white solid bottom assay plates (Greiner Bio-One) with appropriate DMSO backfill for a final DMSO concentration of 0.1%. For Sp5-Luc reporter gene assays, the cells were plated at 4,000 cells/well in 384-well plates with medium containing 1% fetal bovine serum and incubated overnight at 37° C. and 5% CO2. Following incubation, 20 μl of BrightGlo luminescence reagent (Promega) was added to each well of the 384-well assay plates. The plates were placed on an orbital shaker for 2 min and then luminescence was quantified using the Envision (Perkin Elmer) plate reader. Readings were normalized to DMSO only treated cells, and normalized activities were utilized for EC50 calculations using the dose-response log (inhibitor) vs. response -variable slope (four parameters) nonlinear regression feature available in GraphPad Prism 5.0 (or Dotmatics). For EC50 of >10 μM, the percent inhibition at 10 μM is provided.

[2] = system: SW480 colon cancer cells; assay: Cell viability assay (CellTiter-Blue), four days; conditions: Homo sapiens, 96 h, CellTiter-Blue cell viability
Description: Representative compounds were screened using the following assay procedure to assess the effect on cell viability as described below.
Each compound was dissolved in DMSO as a 10 mM stock and used to prepare compound source plates. Serial dilution (1:3, 8-point dose-response curves from 10 μM to 0.0045 μM) and compound transfer was performed using the ECHO 550 (Labcyte, Sunnyvale, Calif.) into 96-well clear bottom, black-walled plates (Corning-Costar).
Approximately 2×10^3 SW480 colon cancer cells were seeded into each well and allowed to incubate in the presence or absence of compound for four days at 37° C./5% CO2. Eight replicates of DMSO-treated cells served as controls and cells treated with compound were performed in duplicate.
After incubation, 20 μL of CellTiter-Blue (Promega) was added to each well allowed to incubate for approximately 3 hours. This reagent was a buffered solution which contains resazurin, metabolically active cells were able to reduce rezarurin (blue) into resorufin (pink) which was highly fluorescent. This measured fluorescence was used as a readout for cell viability.
After incubation, the plates were read at Ex 560 nm Em 590 nm (Cytation 3, BioTek). Dose-response curves were generated and EC50 concentration values were calculated using non-linear regression curve fit in the GraphPad Prism (San Diego, Calif.) or Dotmatics' Studies Software (Bishops Stortford, UK). For EC50 of >10 μM, the percent inhibition at 10 μM is provided.

[3] = system: primary human fibroblasts derived from IPF patients (LL29 cells), α-smooth muscle actin (αSMA); assay: Inhibition of the fibrotic process: TGF-β1-treated primary human fibroblasts from IPF patients, αSMA staining; conditions: Fibroblast, 96 h, LL29 fibroblasts from IPF patients, TGF-β1 20 ng/mL, 4 days, inhibition of fibrotic process
Description: Representative compounds were screened using primary human fibroblasts (derived from IPF patients) treated with TGF-β1 to determine their ability to inhibit the fibrotic process.
Primary human fibroblasts derived from IPF patients (LL29 cells) [^1Xiaoqiu Liu, et. al., “Fibrotic Lung Fibroblasts Show Blunted Inhibition by cAMP Due to Deficient cAMP Response Element-Binding Protein Phosphorylation”, Journal of Pharmacology and Experimental Therapeutics (2005), 315(2), 678-687; ^2Watts, K. L., et. al., “RhoA signaling modulates cyclin D1 expression in human lung fibroblasts; implications for idiopathic pulmonary fibrosis”, Respiratory Research (2006), 7(1), 88] were obtained from American Type Culture Collection (ATCC) and expanded in F12 medium supplemented with 15% Fetal Bovine Serum and Penicillin/Streptomycin.
Each compound was dissolved in DMSO as a 10 mM stock and used to prepare compound source plates. Serial dilution (1:2, 11-point dose-response curves from 10 μM to 1.87 nM) and compound transfer was performed using the ECHO 550 (Labcyte, Sunnyvale, Calif.) into 384-well clear bottom assay plates (Greiner Bio-One) with appropriate DMSO backfill for a final DMSO concentration of 0.1%. LL29 cells are plated at 1,500 cells/well in 80 μL/well F12 medium supplemented with 1% Fetal Bovine Serum. One hour after addition of the cells, TGF-β1 (Peprotech; 20 ng/mL) was added to the plates to induce fibrosis (ref. 1 and 2 above). Wells treated with TGF-β1 and containing DMSO were used as controls. Cells were incubated at 37° C. and 5% CO2 for 4 days. Following incubation for 4 days, SYTOX green nucleic acid stain (Life Technologies [Thermo Fisher Scientific]) was added to the wells at a final concentration of 1 μM and incubated at room temperature for 30 min. Cells were then fixed using 4% formaldehyde (Electron Microscopy Sciences), washed 3 times with PBS followed by blocking and permeabilization using 3% Bovine Serum Albumin (BSA; Sigma) and 0.3% Triton X-100 (Sigma) in PBS. Cells were then stained with antibody specific to α-smooth muscle actin (αSMA; Abcam) (ref. 1 and 2 above) in 3% Bovine Serum Albumin (BSA; Sigma) and 0.3% Triton X-100 (Sigma) in PBS, and incubated overnight at 4° C. Cells were then washed 3 times with PBS, followed by incubation with Alexa Flor-647 conjugated secondary antibody (Life Technologies [Thermo Fisher Scientific]) and DAPI at room temperature for 1 hour. Cells were then washed 3 times with PBS and plates were sealed for imaging. αSMA staining was imaged by excitation at 630 nm and emission at 665 nm and quantified using the Compartmental Analysis program on the CellInsight CX5 (Thermo Scientific). Dead or apoptotic cells were excluded from analysis based on positive SYTOX green staining. % of total cells positive for αSMA were counted in each well and normalized to the average of 11 wells treated with TGF-β1 on the same plate using Dotmatics' Studies Software. The normalized averages (fold change over untreated) of 3 replicate wells for each compound concentration were used to create dose-responses curves and EC50 values were calculated using non-linear regression curve fit in the Dotmatics' Studies Software. For EC50 of >10 μM, the percent inhibition at 10 μM is provided.

[4] = system: IL-6 (THP-1 cells); assay: Inhibition of IL-6 in LPS-stimulated THP-1 monocytes (HTRF); conditions: Homo sapiens, LPS 500 ng/mL, IL-6 by HTRF
Description: Human monocyte cell line (THP-1 cells; Catalog # TIB-202, ATCC, Manassas, Va.) were cultured in Roswell Park Memorial Institute (RPMI) 1640 Medium (Catalog #21870-100, Buffalo, N.Y.) with 1% L-glutamine, 1% HEPES, 1% Sodium Pyruvate, 2% Sodium Bicarbonate supplemented with 100 units/mL penicillin, 50 μg/mL streptomycin, 2-mercaptoethanol (0.05 mM) [basal medium] and 10% fetal bovine serum (Catalog #16140089, Life Technologies, Carlsbad, Calif.) at 37° C. and 5% CO2.
THP-1 cells were cultured in basal media with 1% FBS for 24 hours before the start of the assay. Each compound was dissolved in DMSO as a 10 mM stock and used to prepare compound source plates. Serial dilution (1:3, 10-point dose-response curves starting from 10 μM) and compound transfer was performed using the ECHO 550 (Labcyte, Sunnyvale, Calif.) into 384-well white low volume assay plates (Greiner Bio-One) with appropriate DMSO backfill for a final DMSO concentration of 0.1%. THP-1 cells were plated at 5000 cells/well in the 384-well plates and incubated at 37° C. for 2 h. 500 ng/mL of LPS was added after 2 hours and cells were incubated for another 22 hours at 37° C. Plates were spun in a centrifuge for 1 minute at […] and a mixture of anti-IL6 XL665, and anti-IL6 Cryptate diluted in reconstitution buffer (Cisbio Inc.) was added to each well. Following incubation for 3 hrs at room temperature, Homogeneous Time-Resolved Fluorescence (HTRF) was measured using the Envision (Perkin Elmer) at 665 nm and […]. The ratio of fluorescence at 665 nm to 620 nm was used as a readout for IL6 quantification. All samples were processed in duplicate. Readings were normalized to DMSO treated cells and normalized activities were utilized for EC50 calculations using the dose-response log (inhibitor) vs. response -variable slope (four parameters) nonlinear regression feature available in GraphPad Prism 5.0 (or Dotmatics). For EC50 of >10 μM, the percent inhibition at 10 μM is provided.

EC50 [1]	EC50 [2]	EC50 [4]	SMILES	EC50 [3]
687 nM	2290 nM	115 nM	c1ccc(-c2ccc3[nH]nc(-c4nc5cccnc5[nH]4)c3n2)nc1 [Compound 280, 3-(3H-Imidazo[4,5-b]pyridin-2-yl)-5-(pyridin-2-yl)-1H-pyrazolo[4,3-b]pyridine]	3880 nM
2660 nM	2220 nM	4770 nM	CN(C)CCNc1cc(F)cc(-c2ccnc3[nH]c(-c4n[nH]c5ccc(-c6cncc(OCc7ccccc7)c6)nc45)nc23)c1 [Compound 790, N^1-(3-(2-(5-(5-(Benzyloxy)pyridin-3-yl)-1H-pyrazolo[4,3-b]pyridin-3-yl)-3H-imidazo[4,5-b]pyridin-7-yl)-5-fluorophenyl)-N^2,N^2-dimethylethane-1,2-diamine]	2500 nM
3290 nM	3560 nM	9180 nM	Oc1cncc(-c2ccc3[nH]nc(-c4nc5c(N6CCCCC6)ccnc5[nH]4)c3n2)c1 [Compound 613, 5-(3-(7-(Piperidin-1-yl)-3H-imidazo[4,5-b]pyridin-2-yl)-1H-pyrazolo[4,3-b]pyridin-5-yl)pyridin-3-ol]	2440 nM
1810 nM	1160 nM	1500 nM	CN1CCN(c2ccnc3[nH]c(-c4n[nH]c5ccc(-c6cncc(OCc7ccccc7)c6)nc45)nc23)CC1 [Compound 646, 5-(5-(Benzyloxy)pyridin-3-yl)-3-(7-(4-methylpiperazin-1-yl)-3H-imidazo [4,5-b]pyridin-2-yl)-1H-pyrazolo[4,3-b]pyridine]	1710 nM
1970 nM	1400 nM	4260 nM	c1ccc(CNCc2cncc(-c3ccc4[nH]nc(-c5nc6c(-c7ccsc7)ccnc6[nH]5)c4n3)c2)cc1 [Compound 304, N-Benzyl-1-(5-(3-(7-(thiophen-3-yl)-3H-imidazo[4,5-b]pyridin-2-yl)-1H-pyrazolo[4,3-b]pyridin-5-yl)pyridin-3-yl)methanamine]	1340 nM
3640 nM	2820 nM	2620 nM	CN(C)CCNc1cc(F)cc(-c2ccnc3[nH]c(-c4n[nH]c5ccc(-c6cncc(CNCC7CCCC7)c6)nc45)nc23)c1 [Compound 473, N^1-(3-(2-(5-(5-(((Cyclopentylmethyl)amino)methyl)pyridin-3-yl)-1H-pyrazolo[4,3-b]pyridin-3-yl)-3H-imidazo[4,5-b]pyridin-7-yl)-5-fluorophenyl)-N^2,N^2-dimethylethane-1,2-diamin]	1530 nM
731 nM	405 nM	1380 nM	c1csc(-c2ccnc3[nH]c(-c4n[nH]c5ccc(-c6ccncc6)nc45)nc23)c1 [Compound 354, 5-(Pyridin-4-yl)-3-(7-(thiophen-2-yl)-3H-imidazo[4,5-b]pyridin-2-yl)-1H-pyrazolo[4,3-b]pyridine]	387 nM
1120 nM	2640 nM	5760 nM	Fc1ccccc1-c1ccnc2[nH]c(-c3n[nH]c4ccc(-c5cncc(CNCC6CCCC6)c5)nc34)nc12 [Compound 81, 1-Cyclopentyl-N-((5-(3-(7-(2-fluorophenyl)-3H-imidazo[4,5-b]pyridin-2-yl)-1H-pyrazolo[4,3-b]pyridin-5-yl)pyridin-3-yl)methyl)methanamine]	1600 nM
620 nM	927 nM	638 nM	Cc1ncc(-c2ccc3[nH]nc(-c4nc5c(-c6cc(F)cc(NCCN(C)C)c6)ccnc5[nH]4)c3n2)n1C [Compound 781, N^1-(3-(2-(5-(1,2-Dimethyl-1H-imidazol-5-yl)-1H-pyrazolo[4,3-b]pyridin-3-yl)-3H-imidazo[4,5-b]pyridin-7-yl)-5-fluorophenyl)-N^2,N^2-dimethylethane-1,2-diamine]	4800 nM
4140 nM	832 nM	5420 nM	FC1(F)CCN(Cc2cncc(-c3ccc4[nH]nc(-c5nc6c(N7CCCCC7)ccnc6[nH]5)c4n3)c2)C1 [Compound 194, 5-(5-((3,3-Difluoropyrrolidin-1-yl)methyl)pyridin-3-yl)-3-(7-(piperidin-1-yl)-3H-imidazo[4,5-b]pyridin-2-yl)-1H-pyrazolo[4,3-b]pyridine]	1190 nM
